# Laboratory results as given in patent US8575158B2, “1-phenyl-substituted heterocyclyl derivatives and their use as prostaglandin D2 receptor modulators” (Actelion Pharmaceuticals Ltd., priority 2010, dated 2013).
# pIC50: −log10 of the molar value.
# Target: T1, hCRTH2 receptor (Homo sapiens, UniProt Q9Y5Y4)
# T1 construct: expressed in transfected cells; host or cells: HEK293
# T1 sequence (Q9Y5Y4 1-395): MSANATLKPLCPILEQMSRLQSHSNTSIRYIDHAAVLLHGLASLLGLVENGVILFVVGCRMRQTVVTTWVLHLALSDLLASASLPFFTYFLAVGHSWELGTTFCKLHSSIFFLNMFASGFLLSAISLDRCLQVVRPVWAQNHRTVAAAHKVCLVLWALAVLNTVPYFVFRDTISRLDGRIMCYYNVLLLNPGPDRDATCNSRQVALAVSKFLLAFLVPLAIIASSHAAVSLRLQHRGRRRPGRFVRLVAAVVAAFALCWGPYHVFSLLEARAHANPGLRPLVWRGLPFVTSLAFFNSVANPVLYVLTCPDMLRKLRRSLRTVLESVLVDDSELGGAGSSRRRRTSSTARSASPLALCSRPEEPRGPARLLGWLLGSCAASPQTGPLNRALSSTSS
# Test: Radioligand displacement assay (3H-PGD2) on hCRTH2 receptor membranes
# Type: binding
# Details: antagonistic activity, 3H-PGD2 radioligand displacement, HEK293-hCRTH2 membranes
row,Structure (SMILES),pIC50
1,"O=C(O)COc1ccc(Cl)cc1[C@@H]1c2ccc(F)c(F)c2CCN1C(=O)OCc1cccc(F)c1 [Example 350, (S)-1-(2-Carboxymethoxy-5-chloro-phenyl)-5,6-difluoro-3,4-dihydro-1H-isoquinoline-2-carboxylic acid 3-fluoro-benzyl ester]",8.47
2,"Cn1nc(COC(=O)N2CCc3cc(F)ccc3[C@H]2c2cc(Cl)ccc2OCC(=O)O)c2ccccc21 [Example 346, (S)-1-(2-Carboxymethoxy-5-chloro-phenyl)-6-fluoro-3,4-dihydro-1H-isoquinoline-2-carboxylic acid 1-methyl-1H-indazol-3-ylmethyl ester]",8.94
3,"Cc1conc1COC(=O)N1CCc2c(ccc(F)c2F)[C@H]1c1cc(Cl)ccc1OCC(=O)O [Example 306, (S)-1-(2-Carboxymethoxy-5-chloro-phenyl)-5,6-difluoro-3,4-dihydro-1H-isoquinoline-2-carboxylic acid 4-methyl-isoxazol-3-ylmethyl ester]",8.51

# The remaining lines, values ahead:
row,pIC50,Structure (SMILES)
1,8.28,O=C(O)COc1ccc(Cl)cc1C1c2ccc(F)cc2CCN1C(=O)COCc1ccccc1Cl (racemic) [Example 437]
2,7.79,O=C(O)COc1ccc(Cl)cc1C1c2ccccc2CCN1C(=O)[C@@H]1C[C@H]1c1ccc(F)cc1 (mixture of isomers) [Example 418]
3,7.13,O=C(O)COc1ccc(Cl)cc1C1c2ccccc2CCN1C(=O)COc1ccccc1 (racemic) [Example 409]
4,6.67,O=C(O)COc1ccc(Cl)cc1C1c2ccccc2CCN1C(=O)COc1cccnc1 (racemic) [Example 416]
5,6.22,O=C(O)COc1ccc(Cl)cc1C1c2ccccc2CCN1C(=O)CCn1ccc2ccncc21 (racemic) [Example 372]
6,7.77,O=C(O)COc1ccc(Cl)cc1C1c2ccc(Cl)c(Cl)c2CN1C(=O)OCc1ccccc1 (racemic) [Example 558]
7,7.33,"O=C(O)COc1ccc(Cl)cc1[C@@H]1c2ccc(F)cc2CCN1C(=O)CCn1ncc2ccc(Cl)cc21 [Example 401, (4-Chloro-2-{(S)-2-[3-(6-chloro-indazol-1-yl)-propionyl]-6-fluoro-1,2,3,4-tetrahydro-isoquinolin-1-yl}-phenoxy)-acetic acid]"
8,8.49,"Cc1ccccc1[C@@H]1C[C@H]1C(=O)N1CCc2ccccc2[C@H]1c1cc(Cl)ccc1OCC(=O)O [Example 560, {4-Chloro-2-[(S)-2-((1R,2R)-2-o-tolyl-cyclopropanecarbonyl)-1,2,3,4-tetrahydro-isoquinolin-1-yl]-phenoxy}-acetic acid]"
9,6.35,O=C(O)COc1ccc(Cl)cc1C1c2ccccc2CCN1C(=O)CCn1c(C(F)(F)F)cc2ccccc21 (racemic) [Example 405]
10,7.15,O=C(O)COc1ccc(Cl)cc1C1c2ccccc2CCN1C(=O)COc1ccccc1F (racemic) [Example 410]
11,7.95,"O=C(O)COc1ccc(Cl)cc1C1c2ccccc2CN1C(=O)C1CC1c1ccccc1 (stereo not drawn) [Example 503, {4-Chloro-2-[2-trans-(2-phenyl-cyclopropanecarbonyl)-2,3-dihydro-1H-isoindol-1-yl]-phenoxy}-acetic acid]"
12,6.07,O=C(O)COc1ccc(Cl)cc1C1c2ccccc2CCN1C(=O)CNc1ccccc1 (racemic) [Example 443]
13,6.82,O=C(O)COc1ccc(Cl)cc1[C@@H]1c2ccc(F)cc2CCN1C(=O)CCn1ncc2cc(Cl)ccc21 [Example 396]

# Same assay, conditions: antagonistic activity; 3H-PGD2 displacement on HEK293-hCRTH2 membrane fragments
row,pIC50,Structure (SMILES)
1,6.91,"O=C(O)COc1ccc(Cl)cc1C1c2ccccc2CCN1C(=O)Cc1csc2ccc(Cl)cc12 (racemic) [Example 98, (±)-(4-Chloro-2-{2-[2-(5-chloro-benzo[b]thiophen-3-yl)-acetyl]-1,2,3,4-tetrahydro-isoquinolin-1-yl}-phenoxy)-acetic acid]"
2,8.16,O=C(O)COc1ccc(Cl)cc1C1c2ccccc2CCN1C(=O)OCc1c(F)cccc1F (racemic) [Example 250]
3,8.54,"COc1ccc2c(CC(=O)N3CCc4ccccc4C3c3cc(Cl)ccc3OCC(=O)O)coc2c1 (racemic) [Example 92, (±)-(4-Chloro-2-{2-[2-(6-methoxy-benzofuran-3-yl)-acetyl]-1,2,3,4-tetrahydro-isoquinolin-1-yl}-phenoxy)-acetic acid]"
4,7.52,"O=C(O)COc1cc(F)c(F)cc1C1c2ccccc2CCN1C(=O)OCc1ccccc1 (racemic) [Example 6, (±)-1-(2-Carboxymethoxy-4,5-difluoro-phenyl)-3,4-dihydro-1H-isoquinoline-2-carboxylic acid benzyl ester]"
5,6.04,"CC(C)(CC(=O)N1CCc2ccccc2C1c1cc(F)ccc1OCC(=O)O)c1ccccc1 (racemic) [Example 46, (±)-{4-Fluoro-2-[2-(3-methyl-3-phenyl-butyryl)-1,2,3,4-tetrahydro-isoquinolin-1-yl]-phenoxy}-acetic acid]"
6,6.42,"O=C(O)COc1ccc(Cl)cc1C1c2ccccc2CCN1C(=O)C1=Cc2ccccc2OC1 (racemic) [Example 69, (±)-{4-Chloro-2-[2-(2H-chromene-3-carbonyl)-1,2,3,4-tetrahydro-isoquinolin-1-yl]-phenoxy}-acetic acid]"
7,6.46,CCS(=O)(=O)c1ccc(OCC(=O)O)c(C2c3ccccc3CCN2C(=O)OCc2ccccc2)c1 (racemic) [Example 184]
8,6.06,"O=C(O)COc1ccc(F)cc1C1c2ccccc2CCN1C(=O)CCc1c(Cl)cccc1Cl (racemic) [Example 53, (±)-(2-{2-[3-(2,6-Dichloro-phenyl)-propionyl]-1,2,3,4-tetrahydro-isoquinolin-1-yl}-4-fluoro-phenoxy)-acetic acid]"
9,8.70,"N#Cc1ccc(OCC(=O)O)c([C@@H]2c3cccc(F)c3CCN2C(=O)OCc2ccccc2)c1 [Example 32, (S)-1-(2-Carboxymethoxy-5-cyano-phenyl)-5-fluoro-3,4-dihydro-1H-isoquinoline-2-carboxylic acid benzyl ester]"
10,8.08,"N#Cc1ccc(OCC(=O)O)c(C2c3cc(F)cc(F)c3CCN2C(=O)OCc2ccccc2)c1 (racemic) [Example 44, (±)-1-(2-Carboxymethoxy-5-cyano-phenyl)-5,7-difluoro-3,4-dihydro-1H-isoquinoline-2-carboxylic acid benzyl ester]"
11,7.29,"O=C(O)COc1ccc(C(F)(F)F)cc1C1c2ccccc2CCN1C(=O)OCc1ccccc1 (racemic) [Example 20, (±)-1-(2-Carboxymethoxy-5-trifluoromethyl-phenyl)-3,4-dihydro-1H-isoquinoline-2-carboxylic acid benzyl ester]"
12,9.46,"Cc1conc1COC(=O)N1CCc2ccccc2[C@H]1c1cc(Cl)ccc1OCC(=O)O [Example 280, (S)-1-(2-Carboxymethoxy-5-chloro-phenyl)-3,4-dihydro-1H-isoquinoline-2-carboxylic acid 4-methyl-isoxazol-3-ylmethyl ester]"
13,6.24,CCS(=O)(=O)c1ccc2c(c1)C(c1cc(F)ccc1OCC(=O)O)N(C(=O)OCc1ccccc1)CC2 (racemic) [Example 181]
14,8.14,"O=C(O)COc1ccc(F)cc1C1c2cccc(F)c2CCN1C(=O)OCc1ccccc1 (racemic) [Example 34, (±)-1-(2-Carboxymethoxy-5-fluoro-phenyl)-5-fluoro-3,4-dihydro-1H-isoquinoline-2-carboxylic acid benzyl ester]"
15,7.89,"O=C(O)COc1ccc(Cl)cc1C1c2ccccc2CCN1C(=O)CCCc1ccc(Cl)cc1 (racemic) [Example 93, (±)-(4-Chloro-2-{2-[4-(4-chloro-phenyl)-butyryl]-1,2,3,4-tetrahydro-isoquinolin-1-yl}-phenoxy)-acetic acid]"
16,7.79,"Cc1cccc(OCCC(=O)N2CCc3ccccc3C2c2cc(Cl)ccc2OCC(=O)O)c1 (racemic) [Example 94, (±)-{4-Chloro-2-[2-(3-m-tolyloxy-propionyl)-1,2,3,4-tetrahydro-isoquinolin-1-yl]-phenoxy}-acetic acid]"
17,6.83,"O=C(O)COc1ccc(-c2noc(=S)[nH]2)cc1C1c2ccccc2CCN1C(=O)OCc1ccccc1 (racemic) [Example 214, (±)-1-[2-Carboxymethoxy-5-(5-thioxo-4,5-dihydro-[1,2,4]oxadiazol-3-yl)-phenyl]-3,4-dihydro-1H-isoquinoline-2-carboxylic acid benzyl ester]"
18,6.24,O=C(O)COc1ccc(F)cc1C1c2ccccc2CCN1C(=O)Cc1ccc(-c2ccccc2)cc1 (racemic) [Example 60]
19,6.10,"Cc1nnnn1-c1ccc(CC(=O)N2CCc3ccccc3C2c2cc(F)ccc2OCC(=O)O)cc1 (racemic) [Example 55, (±)-[4-Fluoro-2-(2-{2-[4-(5-methyl-tetrazol-1-yl)-phenyl]-acetyl}-1,2,3,4-tetrahydro-isoquinolin-1-yl)-phenoxy]-acetic acid]"
20,8.24,N#Cc1cccc(COC(=O)N2CCc3ccccc3C2c2cc(Cl)ccc2OCC(=O)O)c1 (racemic) [Example 257]
21,8.27,"O=C(O)COc1ccc(Cl)cc1C1c2ccccc2CCN1C(=O)[C@@H]1C[C@H]1c1ccccc1 (mixture of isomers) [Example 116, (±)-{4-Chloro-2-[2-(trans-2-phenyl-cyclopropanecarbonyl)-1,2,3,4-tetrahydro-isoquinolin-1-yl]-phenoxy}-acetic acid]"

# Same assay, conditions: radioligand displacement (3H-PGD2), hCRTH2 receptor membranes; antagonistic activity
row,pIC50,Structure (SMILES)
1,7.26,"O=C(OCc1ccccc1)N1CCc2ccccc2[C@H]1c1cc(Cl)ccc1OCc1n[nH]c(=O)o1 [Example 571, (S)-1-[5-Chloro-2-(5-oxo-4,5-dihydro-[1,3,4]oxadiazol-2-ylmethoxy)-phenyl]-3,4-dihydro-1H-isoquinoline-2-carboxylic acid benzyl ester]"
